Results published in ChEMBL document CHEMBL3885861, “Open TG-GATES”.

Organism: Rattus norvegicus
Assay: Open TG-GATES - Regimen: Single
Assay type: toxicity, organism-based, Sprague-Dawley
Design: regimen Single, gender Male, age 6 weeks
Conditions: in vivo, po, 0 mg/kg, route gavage, dose level Control; for APTT / Bas / Eos / Fbg / Hb / Ht / Lym / MCH / MCHC / MCV / Mono / Neu / PT / Plat / RBC / Ret / WBC: tissue Blood; for KIDNEY_L / KIDNEY_R / KIDNEY_TOTAL: tissue Kidney; for LIVER: tissue Liver; for A/G / ALP / ALT / AST / BUN / CRE / Ca / Cl / DBIL / GLC / IP / K / LDH / Na / PL / RALB / TBIL / TC / TG / TP / gamma-GTP: tissue Plasma

CN1C(C(=O)Nc2ccccn2)=C(O)c2sc(Cl)cc2S1(=O)=O [LORNOXICAM]
TERMINAL_BW (3 h): 223 g | APTT (3 h): 20 s | Bas (3 h): 1% | Eos (3 h): 1.4% | Fbg (3 h): 213.2 mg/dL | Hb (3 h): 13.4 g/dL | Ht (3 h): 39.7% | Lym (3 h): 78.8% | MCH (3 h): 21 pg | MCHC (3 h): 33.8% | MCV (3 h): 62.2 fL | Mono (3 h): 2.8% | Neu (3 h): 16.4% | PT (3 h): 11.9 s | Plat (3 h): 135.7 x10_4/uL | RBC (3 h): 638 x10_4/ul | Ret (3 h): 6.8% | WBC (3 h): 93 x10_2/uL | KIDNEY_L (3 h): 1 g | KIDNEY_R (3 h): 1 g | KIDNEY_TOTAL (3 h): 2 g | LIVER (3 h): 10.1 g | A/G (3 h): 1.7 | ALP (3 h): 1010.4 IU/L | ALT (3 h): 36.2 IU/L | AST (3 h): 73 IU/L | BUN (3 h): 11.8 mg/dL | CRE (3 h): 0.4 mg/dL | Ca (3 h): 10.5 mg/dL | Cl (3 h): 103.4 meq/L | DBIL (3 h): 0.076 mg/dL | GLC (3 h): 197.2 mg/dL | IP (3 h): 8.6 mg/dL | K (3 h): 3.7 meq/L | LDH (3 h): 168 IU/L | Na (3 h): 141.4 meq/L | PL (3 h): 133.4 mg/dL | RALB (3 h): 3.5 g/dL | TBIL (3 h): 0.1 mg/dL | TC (3 h): 71.2 mg/dL | TG (3 h): 80 mg/dL | TP (3 h): 5.5 g/dL | gamma-GTP (3 h): 1.4 IU/L | TERMINAL_BW (6 h): 219.8 g | APTT (6 h): 19.8 s | Bas (6 h): 0.8% | Eos (6 h): 1% | Fbg (6 h): 221.2 mg/dL | Hb (6 h): 13.2 g/dL | Ht (6 h): 39.3% | Lym (6 h): 81.2% | MCH (6 h): 20.9 pg | MCHC (6 h): 33.6% | MCV (6 h): 62.1 fL | Mono (6 h): 2.6% | Neu (6 h): 14.2% | PT (6 h): 12 s | Plat (6 h): 119.7 x10_4/uL | RBC (6 h): 632.4 x10_4/ul | Ret (6 h): 7.2% | WBC (6 h): 109.1 x10_2/uL | KIDNEY_L (6 h): 0.9 g | KIDNEY_R (6 h): 1 g | KIDNEY_TOTAL (6 h): 1.9 g | LIVER (6 h): 9.6 g | A/G (6 h): 1.6 | ALP (6 h): 765.4 IU/L | ALT (6 h): 33.4 IU/L | AST (6 h): 68.8 IU/L | BUN (6 h): 11 mg/dL | CRE (6 h): 0.4 mg/dL | Ca (6 h): 10.4 mg/dL | Cl (6 h): 103 meq/L | DBIL (6 h): 0.066 mg/dL | GLC (6 h): 196.8 mg/dL | IP (6 h): 9.1 mg/dL | K (6 h): 3.9 meq/L | LDH (6 h): 209.2 IU/L | Na (6 h): 140.8 meq/L | PL (6 h): 146 mg/dL | RALB (6 h): 3.4 g/dL | TBIL (6 h): 0.1 mg/dL | TC (6 h): 84.8 mg/dL | TG (6 h): 64.8 mg/dL | TP (6 h): 5.6 g/dL | gamma-GTP (6 h): 0.8 IU/L
